Experimental findings from a melting point compilation (Tetko et al.; mined from patent text by program, amines drawn as free bases though some values may be those of a salt) are described below.

Usually melting point stands for the temperature, or range, at which the solid turns liquid.

The compound `CC1(Cc2ccc3c(c2)OCCO3)CN(C(c2ccccc2)c2ccccc2)CCN1` (stereo unspecified) showed a melting point of 144 °C. With `Cc1ccccc1C(=O)Nc1ccc(C(=O)N2CCCC(CN)c3ccccc32)cc1` (stereo unspecified) the figure was 233 to 235 °C; with `CNCCCNC(=O)c1[nH]c(-c2ccccc2)c2cc(Cl)ccc12`, 162 to 164 °C. For `CCCC[C@H]1[C@@H](O)CC[C@@]2(C)CC[C@@H]3C[C@]12OC3(C)C` the value was 47 to 48 °C. In turn, `O=C(Nc1cccc2c(=O)cc(-c3nnn[nH]3)oc12)c1ccc2c(c1)CC(COCc1ccccc1)O2` (stereo unspecified) displayed a melting point of 200 to 202 °C. Compound `O=C(Nc1nc(C(O)C(=O)O)cs1)OCC(Cl)(Cl)Cl` (stereo unspecified) yielded a melting point of 135 to 136 °C. In the case of `CCOC(=O)c1cc2cc(Oc3ccc(S(C)(=O)=O)cc3)cc(OCc3nccn3C)c2[nH]1`, the melting point was 91 to 92 °C. With `O=C(Cc1c[nH]c2ccccc12)Nc1ccccc1C(=O)O` the figure was 205 to 207 °C; with `Cc1cn2ccnc(Cl)c2n1`, 128 to 130 °C. With `O=C(N1CCC(c2nc(-c3c(Cl)cccc3Cl)no2)CC1)N1CCCc2ccccc21` the figure was 63 to 68 °C; with `CC(=O)C1=C(O)C(=C(C)Nc2ccc(Cl)cc2)C(=O)OC1=O`, 205 to 206 °C; with `CCOC(=O)c1cc2n(C)c3ccc(Cl)cc3c(=O)n2n1`, 272 to 274 °C. With `CC(=O)c1ccc(Sc2cccc(Br)c2)cc1` the figure was 54 to 57 °C. On to `CN1C(=O)CN(C(=O)c2ccccc2)N(c2cc(Cl)c(C(C#N)c3ccc(Cl)cc3)c(Cl)c2)C1=O` (stereo unspecified), for which the melting point came to 148 °C. In the case of `OCc1cc(N2CCCCC2)c(Br)cn1`, the melting point lay within 118 to 119 °C. For `N#CCON=C(C(=O)O)c1csc(NC(c2ccccc2)(c2ccccc2)c2ccccc2)n1` the value was 180 °C; for `CCC(COCc1ccc(C#N)cc1)n1cnc2c(N)nc3ccccc3c21` (stereo unspecified), 160 to 161 °C; for `CCC(=O)Cn1c(C)cn(N=Cc2cccnc2)c1=O`, 183 to 184 °C.

`O=C(Nc1ccc(O)cc1)c1cc(O)cc(O)c1` gave a melting point of 266 °C. Compound `CCCOc1ccccc1-c1nc(NCCO)cc(=O)[nH]1` returned a melting point of 164 to 166 °C. For `CNC(=O)N1CC(Oc2cccc(C(N)=O)c2)C1` the value was 238 to 240 °C. With `Cc1nc(=O)[nH]c2ccc(N(C)C)cc12` the figure was 278 to 281 °C; with `Cn1nc(N)nc1NCCSCc1cccc(CN2CCCCC2)c1`, 92 to 93 °C; with `O=C(Nc1ccc(Oc2cncc(Cl)c2)nc1)c1ccccc1C(c1ccc(O)cc1)c1ccc(O)cc1`, 122 to 125 °C. With `CNC(=O)N1CCc2nc(N)sc2C1` the figure was 202 °C; with `COc1ccc2sc(C(N)=O)c(Cl)c2c1`, 220 to 222 °C. Compound `CC(C)(C)c1cc2sccc2c(C(C)(C)C)c1O` returned a melting point of 107 °C. For `CCC(=O)Oc1n[nH]c(=O)c2nc3cc(Cl)ccc3c(O)c12` the value was 275 to 278 °C.

Compound `CNC(=O)CCc1c(-c2ccccc2)n(C)c(=O)c2ccccc12` registered a melting point of 185 to 186 °C. For `COc1ccc(/C(=C\C=C\C2CC2)C(=O)O)cc1` the value was 158 to 160 °C; for `c1ccc(-c2nc3cc(-c4nc(COc5ccc(CCCn6ccnc6)cc5)co4)ccc3o2)cc1`, 166 to 167 °C.

Compound `O=C1C[C@]2(CCCC[C@H]2Cc2ccccc2)S(=O)(=O)CCN1Cc1cccnc1` yielded a melting point of 220 to 221 °C. For `NC(=O)c1sc2nccc(N3CCCN(c4ccc([N+](=O)[O-])cc4)CC3)c2c1N` the value was 244 to 248 °C; for `Cc1ccc2c(c1)C=Cc1sc(C)nc1C2c1cn(C)c(=O)[nH]c1=S` (stereo unspecified), 235 to 237 °C; for `CCc1c(Cc2[nH]c(Cc3[nH]c(C(=O)OCc4ccccc4)c(C)c3CC)c(CC)c2CC)[nH]c(C(=O)OCc2ccccc2)c1C`, 211 °C. With `Cc1cccc(NC(=O)C2=C(O)c3ccccc3S(=O)(=O)N2C)c(=O)c1` the figure was 276 to 280 °C; with `COc1ccc(Oc2c(Cl)cc(-n3ncc(=O)[nH]c3=O)cc2Cl)cc1C=O`, 184 to 187 °C. For `COc1ccc(-c2c(Cl)c(CN3C(=O)CCC3=O)nc3sc4c(c23)CCN(C(C)=O)C4)cc1OC` the value was 208 to 210 °C; for `CCn1c(Cl)c(C=O)c(=O)n(CC)c1=O`, 88 to 89 °C; for `CS(=O)(=O)Cc1cc(N)ccc1N1C(=O)c2ccc(Cl)cc2C1=O`, 228 to 230 °C.

Compound `CCOC(=O)C(C)(C#N)c1cccc(S(=O)(=O)c2ccccc2Cl)c1OC` (stereo unspecified) returned a melting point of 178 to 179 °C.

Consider `CCOC(=O)COc1cc(F)ccc1C(=S)NCc1cccc([N+](=O)[O-])c1`, for which the melting point is 118 °C. For `Nc1nonc1-c1nc2ccccc2n1CC(=NO)c1ccc(Br)cc1` the value was 198 to 201 °C; for `CCc1[nH]n(C2CCCC2)c2nc(Cc3ccc(OCc4nnn[nH]4)cc3)nc(=O)c1-2`, 240 to 242 °C. In the case of `CN(C(=O)C(F)(F)F)C(C(=O)O)c1ccc(Cl)cc1` (stereo unspecified), the melting point lay within 117 to 118 °C. With `CCNC(=O)c1cccc(-c2c(CC(=O)Nc3ccc(Cl)cc3C(F)(F)F)c(=O)oc3cc(Cl)c(C)cc23)c1` the figure was 220 to 222 °C; with `CC[C@H](C)[C@H](NC(=O)[C@H](C)N(C(=O)OC(C)(C)C)C1CCCCC1)C(=O)N[C@@H](Cc1ccc(C(C)(C)C)cc1)[C@@H](O)[C@@H](O)CC(C)C`, 171 to 172 °C; with `C[Si](C)(CC[Si](C)(C)c1ccc(C(F)(F)F)cc1)c1ccc(C(F)(F)F)cc1`, 58 to 59 °C. With `CC(C)(C)c1cc(-c2n[nH]c3ncccc23)cc(C(C)(C)C)c1O` the figure was 216 to 217 °C. `CC(=O)OC1C(CO)OC(NC(=O)N(CCCl)N=O)C(OC(C)=O)C1OC(C)=O` (stereo unspecified): the melting point lay in the range of 143 to 144 °C.

For the compound `CSC(C)(C)C(=O)N[C@@H](CS)C(=O)O`, the melting point lay within 110 to 112 °C.

The compound `O=C(c1ccccc1)C(O)C1OC(n2ccc(=O)[nH]c2=O)C(O)(C(=O)c2ccccc2)C1(O)C(=O)c1ccccc1` (stereo unspecified) had a melting point of 119 to 120 °C. For `CC(C)(C)c1cc(C=O)c2ccccc2c1O` the value was 195 to 196 °C.

In turn, `O=C(O)Cc1ccc(NC(=O)C(COc2cccc(Cl)c2)NS(=O)(=O)c2ccc(I)cc2)cc1` (racemic) had a melting point of 225 to 226 °C. With `COc1ccc(CNC(=O)c2cn3c(=O)n(Cc4ccccc4)c(=O)c(C)c3s2)cc1` the figure was 160 to 162 °C; with `CC(C)N(Cc1ccc(C(F)(F)F)cc1)C(=O)C(Cl)Cl`, 92 to 93 °C; with `COc1cccc(C2c3c(C)c(NC(=O)CC(C)(C)C)c(C)c(C)c3OC2(C)C)c1` (stereo unspecified), 166 to 167 °C.

Compound `CNC(=O)[C@@H](C[C@H](O)[C@H](CC1CCCCC1)NC(=O)OC(C)(C)C)C1(O)CCCCC1` yielded a melting point of 175 to 177 °C. With `Cn1ccc(=O)c2ccc(F)cc21`, the melting point is 146 to 149 °C. With `COC(=O)C(CO)N(Cc1ccccc1[N+](=O)[O-])S(=O)(=O)c1ccc(OC)cc1` (stereo unspecified) the figure was 127 to 129 °C; with `CC(=O)NCc1ccc2c(c1)N(C1CCNCC1)CC2`, 165 to 167 °C.
